Measurements as given in paper PMC12196347, “Evaluating Triazole-Substituted Pyrrolopyrimidines as CSF1R Inhibitors” (Molecules, 2025).
Where two headings read alike, the source gives them in different places.

Key:
ERBB4 (HER4) = molecular target: T1, ERBB4 (HER4) (Homo sapiens, UniProt Q15303); assay: Kinase panel profiling: ERBB4; type: biochemical; details: ATP equal to KM
T1 construct: purchased Thermo Fisher Scientific (Invitrogen) SelectScreen (Z'-LYTE)

LYN B = molecular target: T2, LYN B (Homo sapiens, UniProt P07948); assay: Kinase panel profiling: LYN B; type: biochemical; details: ATP equal to KM
T2 construct: purchased Thermo Fisher Scientific (Invitrogen) SelectScreen (Z'-LYTE)
T2 sequence (P07948 1-491 isoform P07948-2): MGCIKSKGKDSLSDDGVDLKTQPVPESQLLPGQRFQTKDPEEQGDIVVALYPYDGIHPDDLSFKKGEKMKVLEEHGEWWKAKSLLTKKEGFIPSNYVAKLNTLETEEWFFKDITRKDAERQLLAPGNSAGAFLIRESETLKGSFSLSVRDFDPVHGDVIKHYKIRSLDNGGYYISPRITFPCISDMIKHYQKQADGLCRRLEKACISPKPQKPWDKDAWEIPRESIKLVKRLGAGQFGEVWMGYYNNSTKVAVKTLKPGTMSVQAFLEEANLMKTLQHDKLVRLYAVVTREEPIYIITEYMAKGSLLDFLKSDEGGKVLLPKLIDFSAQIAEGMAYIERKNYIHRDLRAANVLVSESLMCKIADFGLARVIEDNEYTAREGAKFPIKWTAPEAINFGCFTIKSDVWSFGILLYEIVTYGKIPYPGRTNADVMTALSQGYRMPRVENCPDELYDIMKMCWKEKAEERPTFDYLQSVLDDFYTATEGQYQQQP

[1] = test system: KIT-positive cell line GIST-T1; assay: GIST-T1 CellTiter-Glo cell viability assay; type: cell-based; details: Homo sapiens, GISTT1; cellular proliferation, GIST-T1, 72 h
ALK = molecular target: T3, ALK (Homo sapiens, UniProt Q9UM73); assay: Kinase panel profiling: ALK; type: biochemical; details: ATP equal to KM
T3 construct: purchased Thermo Fisher Scientific (Invitrogen) SelectScreen (Z'-LYTE)
T3 sequence (Q9UM73 19-1620): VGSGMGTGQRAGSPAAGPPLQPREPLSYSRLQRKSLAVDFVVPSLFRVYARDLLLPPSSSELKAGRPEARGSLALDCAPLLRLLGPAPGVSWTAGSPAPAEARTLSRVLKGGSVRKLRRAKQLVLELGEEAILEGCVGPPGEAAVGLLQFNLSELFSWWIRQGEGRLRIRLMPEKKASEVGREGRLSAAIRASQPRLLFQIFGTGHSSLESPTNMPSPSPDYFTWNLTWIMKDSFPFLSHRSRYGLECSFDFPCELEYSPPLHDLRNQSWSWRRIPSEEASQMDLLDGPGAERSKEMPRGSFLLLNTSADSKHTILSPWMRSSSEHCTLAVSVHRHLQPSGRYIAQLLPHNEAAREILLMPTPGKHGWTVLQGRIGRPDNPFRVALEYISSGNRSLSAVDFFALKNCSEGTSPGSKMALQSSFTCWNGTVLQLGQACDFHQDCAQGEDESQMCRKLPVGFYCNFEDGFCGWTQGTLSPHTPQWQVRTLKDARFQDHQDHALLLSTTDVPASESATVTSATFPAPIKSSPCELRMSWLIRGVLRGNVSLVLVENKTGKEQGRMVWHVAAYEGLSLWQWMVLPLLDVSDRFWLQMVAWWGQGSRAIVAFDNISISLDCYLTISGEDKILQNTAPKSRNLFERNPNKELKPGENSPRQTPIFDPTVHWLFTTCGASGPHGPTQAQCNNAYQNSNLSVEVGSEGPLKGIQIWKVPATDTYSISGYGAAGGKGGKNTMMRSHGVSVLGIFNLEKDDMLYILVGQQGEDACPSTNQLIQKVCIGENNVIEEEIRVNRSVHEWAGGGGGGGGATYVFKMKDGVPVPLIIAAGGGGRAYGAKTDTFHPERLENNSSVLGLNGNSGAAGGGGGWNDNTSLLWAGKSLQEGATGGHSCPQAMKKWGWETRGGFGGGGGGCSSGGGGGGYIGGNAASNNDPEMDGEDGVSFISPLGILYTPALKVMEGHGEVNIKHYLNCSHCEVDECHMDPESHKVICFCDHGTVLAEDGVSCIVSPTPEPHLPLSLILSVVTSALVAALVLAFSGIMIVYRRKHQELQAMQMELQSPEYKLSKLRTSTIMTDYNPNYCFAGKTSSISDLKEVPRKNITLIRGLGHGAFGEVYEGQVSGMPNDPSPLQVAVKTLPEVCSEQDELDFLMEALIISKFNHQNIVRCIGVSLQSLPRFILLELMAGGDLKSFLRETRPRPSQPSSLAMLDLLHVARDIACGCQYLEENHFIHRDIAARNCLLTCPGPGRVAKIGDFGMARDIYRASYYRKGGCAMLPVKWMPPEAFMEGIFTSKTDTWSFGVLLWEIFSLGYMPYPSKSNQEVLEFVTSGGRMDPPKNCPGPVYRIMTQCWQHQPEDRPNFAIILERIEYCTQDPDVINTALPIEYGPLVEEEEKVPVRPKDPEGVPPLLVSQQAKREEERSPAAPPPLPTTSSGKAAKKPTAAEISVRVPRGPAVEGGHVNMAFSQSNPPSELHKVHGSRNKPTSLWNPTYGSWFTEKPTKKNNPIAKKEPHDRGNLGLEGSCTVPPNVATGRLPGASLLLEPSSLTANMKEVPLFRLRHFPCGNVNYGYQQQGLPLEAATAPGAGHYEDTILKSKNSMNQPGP

ITK = molecular target: T4, ITK (Homo sapiens, UniProt Q08881); assay: Kinase panel profiling: ITK; type: biochemical; details: ATP equal to KM
T4 construct: purchased Thermo Fisher Scientific (Invitrogen) SelectScreen (Z'-LYTE)
T4 sequence (Q08881 1-620): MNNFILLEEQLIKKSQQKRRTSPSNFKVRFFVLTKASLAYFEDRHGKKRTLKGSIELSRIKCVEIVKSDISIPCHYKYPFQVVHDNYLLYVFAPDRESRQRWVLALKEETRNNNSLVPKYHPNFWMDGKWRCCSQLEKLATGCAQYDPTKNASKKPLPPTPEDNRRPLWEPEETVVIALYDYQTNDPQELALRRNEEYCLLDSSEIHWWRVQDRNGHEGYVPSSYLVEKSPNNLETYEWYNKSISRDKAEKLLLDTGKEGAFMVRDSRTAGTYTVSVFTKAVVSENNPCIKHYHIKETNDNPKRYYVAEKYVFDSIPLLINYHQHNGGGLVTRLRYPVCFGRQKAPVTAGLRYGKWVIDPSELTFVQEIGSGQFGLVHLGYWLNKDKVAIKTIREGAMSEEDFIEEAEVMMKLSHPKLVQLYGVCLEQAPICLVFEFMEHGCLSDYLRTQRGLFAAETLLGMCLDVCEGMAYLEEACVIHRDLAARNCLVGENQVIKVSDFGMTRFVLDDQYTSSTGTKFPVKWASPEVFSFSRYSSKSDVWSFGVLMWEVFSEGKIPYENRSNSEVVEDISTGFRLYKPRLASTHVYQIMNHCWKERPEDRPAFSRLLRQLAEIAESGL

NEK1 = molecular target: T5, NEK1 (Homo sapiens, UniProt Q96PY6); assay: Kinase panel profiling: NEK1; type: biochemical; details: ATP equal to KM
T5 construct: purchased Thermo Fisher Scientific (Invitrogen) SelectScreen (Z'-LYTE)

FLT3 = molecular target: T6, FLT3 (Homo sapiens, UniProt P36888); assay: Kinase panel profiling: FLT3; type: biochemical; details: ATP equal to KM
T6 construct: purchased Thermo Fisher Scientific (Invitrogen) SelectScreen (Z'-LYTE)
T6 sequence (P36888 27-993): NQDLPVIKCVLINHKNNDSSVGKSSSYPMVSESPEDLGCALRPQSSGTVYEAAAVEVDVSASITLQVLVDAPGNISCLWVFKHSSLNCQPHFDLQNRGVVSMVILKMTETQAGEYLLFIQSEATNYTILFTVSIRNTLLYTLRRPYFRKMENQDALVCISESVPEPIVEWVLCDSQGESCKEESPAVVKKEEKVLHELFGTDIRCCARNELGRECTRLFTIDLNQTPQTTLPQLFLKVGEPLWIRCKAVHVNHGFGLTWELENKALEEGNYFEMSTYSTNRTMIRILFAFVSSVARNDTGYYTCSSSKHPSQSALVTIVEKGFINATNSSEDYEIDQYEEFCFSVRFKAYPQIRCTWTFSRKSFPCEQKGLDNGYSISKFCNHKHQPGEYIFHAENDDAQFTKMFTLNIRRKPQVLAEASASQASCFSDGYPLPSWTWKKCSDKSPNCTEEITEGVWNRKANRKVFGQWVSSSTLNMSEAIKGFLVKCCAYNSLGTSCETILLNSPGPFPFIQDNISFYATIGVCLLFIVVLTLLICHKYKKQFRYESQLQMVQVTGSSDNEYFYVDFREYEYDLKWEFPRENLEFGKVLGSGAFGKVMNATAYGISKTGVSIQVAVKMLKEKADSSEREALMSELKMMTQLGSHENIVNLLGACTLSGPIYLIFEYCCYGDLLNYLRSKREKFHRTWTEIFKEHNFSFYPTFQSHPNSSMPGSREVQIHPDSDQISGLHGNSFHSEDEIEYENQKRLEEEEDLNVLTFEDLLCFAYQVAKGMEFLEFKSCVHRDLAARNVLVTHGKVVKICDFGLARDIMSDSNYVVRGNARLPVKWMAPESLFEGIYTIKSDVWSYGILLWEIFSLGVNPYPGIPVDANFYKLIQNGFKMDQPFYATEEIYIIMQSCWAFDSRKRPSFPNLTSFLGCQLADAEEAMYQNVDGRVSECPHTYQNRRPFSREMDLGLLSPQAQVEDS

MDCK permeability assay = type: in vitro ADME, canine; details: dog, MDCK cell monolayer
DYRK1A = molecular target: T7, DYRK1A (Homo sapiens, UniProt Q13627); assay: Kinase panel profiling: DYRK1A; type: biochemical; details: ATP equal to KM
T7 construct: purchased Thermo Fisher Scientific (Invitrogen) SelectScreen (Z'-LYTE)

AURKA (Aurora A) = molecular target: T8, AURKA (Aurora A) (Homo sapiens, UniProt O14965); assay: Kinase panel profiling: AURKA; type: biochemical; details: ATP equal to KM
T8 construct: purchased Thermo Fisher Scientific (Invitrogen) SelectScreen (Z'-LYTE)
T8 sequence (O14965 1-403): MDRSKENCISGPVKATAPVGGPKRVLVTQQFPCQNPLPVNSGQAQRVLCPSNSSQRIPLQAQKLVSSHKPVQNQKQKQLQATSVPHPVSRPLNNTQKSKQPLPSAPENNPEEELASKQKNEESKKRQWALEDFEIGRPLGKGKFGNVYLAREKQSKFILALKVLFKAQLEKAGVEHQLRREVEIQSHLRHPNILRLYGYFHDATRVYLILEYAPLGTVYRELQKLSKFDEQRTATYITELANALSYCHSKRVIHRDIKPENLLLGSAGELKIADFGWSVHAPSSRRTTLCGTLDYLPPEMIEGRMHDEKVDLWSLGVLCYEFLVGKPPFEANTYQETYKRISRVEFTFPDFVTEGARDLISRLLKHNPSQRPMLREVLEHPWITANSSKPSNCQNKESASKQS

FER = molecular target: T9, FER (Homo sapiens, UniProt P16591); assay: Kinase panel profiling: FER; type: biochemical; details: ATP equal to KM
T9 construct: purchased Thermo Fisher Scientific (Invitrogen) SelectScreen (Z'-LYTE)
T9 sequence (P16591 whole entry): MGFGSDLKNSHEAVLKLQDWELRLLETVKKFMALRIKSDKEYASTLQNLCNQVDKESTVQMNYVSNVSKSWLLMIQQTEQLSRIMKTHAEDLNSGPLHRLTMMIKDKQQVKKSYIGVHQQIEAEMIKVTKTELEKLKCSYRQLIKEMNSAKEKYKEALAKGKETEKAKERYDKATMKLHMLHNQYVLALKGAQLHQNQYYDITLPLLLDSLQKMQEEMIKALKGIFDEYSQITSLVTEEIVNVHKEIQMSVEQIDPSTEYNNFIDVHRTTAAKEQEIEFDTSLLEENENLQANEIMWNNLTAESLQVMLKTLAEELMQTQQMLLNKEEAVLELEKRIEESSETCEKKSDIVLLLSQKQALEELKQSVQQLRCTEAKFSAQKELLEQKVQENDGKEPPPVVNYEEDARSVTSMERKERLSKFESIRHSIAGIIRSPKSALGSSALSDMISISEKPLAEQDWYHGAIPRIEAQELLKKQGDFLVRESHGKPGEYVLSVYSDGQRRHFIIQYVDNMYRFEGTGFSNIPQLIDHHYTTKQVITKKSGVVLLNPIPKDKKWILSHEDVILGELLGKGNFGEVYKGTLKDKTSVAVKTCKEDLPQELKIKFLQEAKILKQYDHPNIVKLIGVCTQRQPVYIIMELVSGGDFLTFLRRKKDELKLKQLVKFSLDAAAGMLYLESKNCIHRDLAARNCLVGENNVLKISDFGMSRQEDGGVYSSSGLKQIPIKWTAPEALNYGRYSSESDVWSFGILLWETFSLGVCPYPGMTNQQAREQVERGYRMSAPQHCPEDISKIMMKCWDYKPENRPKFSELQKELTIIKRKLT

PDGFRB (PDGFR beta) = PDGFRB (PDGFR beta) (Homo sapiens, UniProt P09619); assay: Kinase panel profiling: PDGFRB; type: biochemical; details: ATP equal to KM
[2] = 1000 nM test concentration, read-out: Average inhibition (%)
[3] = 1000 nM, first data point, read-out: Inhibition (%)
[4] = 1000 nM, second data point, read-out: Inhibition (%)

T1 sequence (Q15303 26-1308): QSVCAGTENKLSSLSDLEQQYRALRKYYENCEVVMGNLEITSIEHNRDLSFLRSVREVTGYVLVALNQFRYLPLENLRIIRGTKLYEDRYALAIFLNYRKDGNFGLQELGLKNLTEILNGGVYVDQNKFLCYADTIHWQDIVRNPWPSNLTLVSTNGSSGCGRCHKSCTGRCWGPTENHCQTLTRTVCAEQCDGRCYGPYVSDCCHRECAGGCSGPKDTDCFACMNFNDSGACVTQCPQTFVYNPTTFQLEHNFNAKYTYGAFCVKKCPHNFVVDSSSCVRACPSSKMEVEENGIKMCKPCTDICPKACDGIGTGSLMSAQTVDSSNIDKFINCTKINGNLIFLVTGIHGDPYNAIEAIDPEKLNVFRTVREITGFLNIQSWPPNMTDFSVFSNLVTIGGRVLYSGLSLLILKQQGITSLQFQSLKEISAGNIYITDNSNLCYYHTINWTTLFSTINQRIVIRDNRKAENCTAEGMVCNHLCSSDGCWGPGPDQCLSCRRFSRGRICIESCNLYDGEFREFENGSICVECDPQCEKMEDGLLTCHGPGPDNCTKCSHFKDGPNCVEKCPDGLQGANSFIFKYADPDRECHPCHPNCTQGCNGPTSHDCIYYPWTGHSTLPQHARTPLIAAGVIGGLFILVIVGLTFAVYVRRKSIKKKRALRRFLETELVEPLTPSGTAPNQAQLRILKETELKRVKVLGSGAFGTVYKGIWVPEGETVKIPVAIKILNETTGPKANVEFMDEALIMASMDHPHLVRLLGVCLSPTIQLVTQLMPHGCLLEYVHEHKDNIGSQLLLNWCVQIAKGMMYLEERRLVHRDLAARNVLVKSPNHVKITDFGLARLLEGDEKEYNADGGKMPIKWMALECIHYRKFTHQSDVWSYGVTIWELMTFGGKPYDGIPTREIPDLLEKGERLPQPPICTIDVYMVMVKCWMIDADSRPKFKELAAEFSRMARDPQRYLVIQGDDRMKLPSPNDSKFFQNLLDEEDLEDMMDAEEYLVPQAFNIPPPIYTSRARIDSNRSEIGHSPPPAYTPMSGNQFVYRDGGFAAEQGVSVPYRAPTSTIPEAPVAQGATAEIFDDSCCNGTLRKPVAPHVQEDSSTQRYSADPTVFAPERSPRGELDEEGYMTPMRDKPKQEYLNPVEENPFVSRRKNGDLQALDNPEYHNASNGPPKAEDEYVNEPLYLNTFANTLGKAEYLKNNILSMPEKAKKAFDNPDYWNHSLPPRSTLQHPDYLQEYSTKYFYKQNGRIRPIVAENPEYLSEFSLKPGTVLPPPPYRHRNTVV

Cc1cccc(CN(C)c2ncnc3[nH]c(-c4cn(Cc5cccnc5)nn4)cc23)c1 [Compound 27a, N-Methyl-N-(3-methylbenzyl)-6-(1-(pyridin-3-ylmethyl)-1H-1,2,3-triazol-4-yl)-7H-pyrrolo[2,3-d]pyrimidin-4-amine]
inhibition at 1 µM (ERBB4 (HER4); [2]): 14%
inhibition at 1 µM (ERBB4 (HER4); [3]): 13%
inhibition at 1 µM (ERBB4 (HER4); [4]): 15%
inhibition at 1 µM (LYN B; [2]): 76%
inhibition at 1 µM (LYN B; [3]): 74%
inhibition at 1 µM (LYN B; [4]): 79%
IC50 [1]: > 30 µM
inhibition at 1 µM (ALK; [2]): 24%
inhibition at 1 µM (ALK; [3]): 24%
inhibition at 1 µM (ALK; [4]): 25%
inhibition at 1 µM (ITK; [2]): 55%
inhibition at 1 µM (ITK; [3]): 58%
inhibition at 1 µM (ITK; [4]): 51%
inhibition at 1 µM (NEK1; [2]): 28%
inhibition at 1 µM (NEK1; [3]): 28%
inhibition at 1 µM (FLT3; [2]): 44%
inhibition at 1 µM (FLT3; [3]): 42%
inhibition at 1 µM (FLT3; [4]): 45%
Papp A→B (MDCK permeability assay; A-B direction): 1.27 ×10⁻⁶ cm/s
Papp B→A (MDCK permeability assay; B-A direction): 3.18 ×10⁻⁶ cm/s
efflux ratio (MDCK permeability assay; read-out: Ratio Papp B > A/Papp A > B): 2.5
inhibition at 1 µM (DYRK1A; [2]): 5%
inhibition at 1 µM (DYRK1A; [3]): 5%
inhibition at 1 µM (DYRK1A; [4]): 4%
inhibition at 1 µM (AURKA (Aurora A); [2]): 38%
inhibition at 1 µM (AURKA (Aurora A); [3]): 35%
inhibition at 1 µM (AURKA (Aurora A); [4]): 40%
inhibition at 1 µM (FER; [2]): 15%
inhibition at 1 µM (FER; [3]): 16%
inhibition at 1 µM (FER; [4]): 14%
inhibition at 1 µM (PDGFRB (PDGFR beta); [2]): 34%
inhibition at 1 µM (PDGFRB (PDGFR beta); [3]): 32%
inhibition at 1 µM (PDGFRB (PDGFR beta); [4]): 35%
